# Test results as given in ChEMBL document CHEMBL1201862, “PubChem BioAssay data set” (2004).
# Calls of active or inactive are those of the source.
# Assays:
# [1] = target: T1, Low molecular weight phosphotyrosine protein phosphatase (Homo sapiens, UniProt P24666); format: functional; conditions: read-out: IC50_Mean;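 further: Dose-response confirmation assay measuring inhibition of LMPTP enzyme activity by fluorescence intensity read-out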
# T1 sequence (P24666 whole entry): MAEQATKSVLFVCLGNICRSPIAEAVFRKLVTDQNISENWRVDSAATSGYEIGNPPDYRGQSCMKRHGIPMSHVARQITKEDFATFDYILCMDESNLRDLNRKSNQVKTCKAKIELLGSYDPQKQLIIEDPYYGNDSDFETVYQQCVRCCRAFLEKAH
# [2] = cells; format: functional, cell-based
# [3] = cells; format: functional, cell-based; remark: listed apart in the source
# [4] = HGIII-sPLA2 enzyme inhibition potency – biochemical, QFRET, IC50, dose response (AID 743457);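 further: green fluorescence rise as the enzyme cleaves BODIPY PC-A2 in liposomes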
# [5] = target: T2, Leucine aminopeptidase (Plasmodium falciparum 3D7, UniProt Q8IL11); test: P. falciparum M17LAP inhibitors, primary screen, biochemical, fluorogenic H-Leu-NHMec substrate, 1536-well (AID 1619); format: functional
# T2 sequence (Q8IL11 whole entry): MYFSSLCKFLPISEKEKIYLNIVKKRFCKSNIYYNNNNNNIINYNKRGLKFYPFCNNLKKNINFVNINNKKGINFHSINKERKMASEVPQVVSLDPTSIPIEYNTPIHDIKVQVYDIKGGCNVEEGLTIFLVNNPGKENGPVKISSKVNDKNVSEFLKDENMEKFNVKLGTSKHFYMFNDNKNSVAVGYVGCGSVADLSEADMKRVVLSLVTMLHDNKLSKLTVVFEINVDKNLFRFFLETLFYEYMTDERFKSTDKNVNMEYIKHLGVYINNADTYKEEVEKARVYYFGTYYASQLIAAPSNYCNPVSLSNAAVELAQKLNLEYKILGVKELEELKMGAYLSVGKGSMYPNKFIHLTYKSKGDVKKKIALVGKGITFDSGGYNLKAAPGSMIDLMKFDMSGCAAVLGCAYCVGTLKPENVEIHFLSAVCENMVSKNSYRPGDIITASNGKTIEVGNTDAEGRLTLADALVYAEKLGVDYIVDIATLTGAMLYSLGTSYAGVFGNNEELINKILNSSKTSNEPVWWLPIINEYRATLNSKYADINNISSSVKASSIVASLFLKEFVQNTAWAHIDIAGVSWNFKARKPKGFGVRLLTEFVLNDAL
# [6] = target: Melanocortin receptor 4 (Homo sapiens, UniProt P32245); format: functional, cell-based;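 further: Cell-based assay with luminescence read-out, confirmatory dose-response testing for agonist activity of biased ligands at MC4R; human U2OS cells with tagged receptor and beta-arrestin; potency of agonists that increase receptor coupling to beta-arrestin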
# Melanocortin receptor 4, sequence (P32245 whole entry, the tested form may be a part): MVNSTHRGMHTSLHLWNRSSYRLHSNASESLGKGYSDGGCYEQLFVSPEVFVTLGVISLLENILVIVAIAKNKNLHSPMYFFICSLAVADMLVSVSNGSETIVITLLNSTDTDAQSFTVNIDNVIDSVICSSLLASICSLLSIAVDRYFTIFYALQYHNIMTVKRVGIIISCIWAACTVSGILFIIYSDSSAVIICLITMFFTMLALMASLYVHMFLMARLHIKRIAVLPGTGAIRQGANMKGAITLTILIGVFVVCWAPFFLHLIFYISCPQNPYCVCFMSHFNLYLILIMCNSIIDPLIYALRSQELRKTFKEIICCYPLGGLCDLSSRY
# [7] = target: Photoreceptor-specific nuclear receptor (Homo sapiens, UniProt Q9Y5X4); format: functional, cell-based;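 further: CHO-S cells with Gal4-NCOR and VP16-NR2E3 two-hybrid luciferase reporter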
# Photoreceptor-specific nuclear receptor, sequence (Q9Y5X4 whole entry, the tested form may be a part): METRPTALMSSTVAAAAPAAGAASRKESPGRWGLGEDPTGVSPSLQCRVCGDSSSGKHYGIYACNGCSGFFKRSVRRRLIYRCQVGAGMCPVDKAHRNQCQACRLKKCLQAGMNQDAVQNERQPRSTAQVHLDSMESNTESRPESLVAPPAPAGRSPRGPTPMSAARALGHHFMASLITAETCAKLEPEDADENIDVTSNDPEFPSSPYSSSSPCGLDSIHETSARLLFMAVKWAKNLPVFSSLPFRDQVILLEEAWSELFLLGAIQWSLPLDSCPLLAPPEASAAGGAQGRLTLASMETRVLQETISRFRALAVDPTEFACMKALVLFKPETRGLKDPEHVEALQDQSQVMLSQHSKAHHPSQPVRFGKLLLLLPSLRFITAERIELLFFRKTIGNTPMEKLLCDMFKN
# [8] = loss of viability in HepG2 cells – cell-based, CellTiter-Glo, cherry-picked, cytotoxicity control for Shn3 inhibitor project, dose response (AID 624134); format: functional
# [9] = non-specific 3'UTR reporter inhibition in Clone20-Shn3RL – cell-based, Renilla luciferase, cherry-picked, counter-screen for Shn3 inhibitor project, dose response (AID 624133); format: functional
# [10] = reduction of Shn3 3'UTR-driven luciferase in osteoblasts – cell-based, Clone20 osteoblasts, firefly luciferase, cherry-picked, dose response (AID 624132); format: functional;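 further: firefly luciferase luminescence from reporter carrying the Shn3 3'UTR in osteoblasts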
# [11] = target: T3, Ubiquitin-conjugating enzyme E2 N (Homo sapiens, UniProt P61088); format: functional
# T3 sequence (P61088 whole entry): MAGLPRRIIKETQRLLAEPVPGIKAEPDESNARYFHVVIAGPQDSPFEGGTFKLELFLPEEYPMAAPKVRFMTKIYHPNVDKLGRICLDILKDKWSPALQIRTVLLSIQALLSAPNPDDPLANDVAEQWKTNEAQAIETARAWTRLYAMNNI
# [12] = target: T4, Bcl-2-related protein A1 (Mus musculus, UniProt Q07440); format: functional;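 further: confirmatory dose–response counterscreen on Bfl-1, used to check hits from a UBC13 polyubiquitin inhibitor campaign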
# T4 sequence (Q07440 whole entry): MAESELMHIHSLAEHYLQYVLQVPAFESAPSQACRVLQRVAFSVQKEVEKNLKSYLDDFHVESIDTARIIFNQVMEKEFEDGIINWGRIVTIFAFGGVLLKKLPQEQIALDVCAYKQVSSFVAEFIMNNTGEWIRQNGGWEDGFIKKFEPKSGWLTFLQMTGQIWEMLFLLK
# [13] = Fluorescence-based cell-based high throughput dose response assay for inhibitors of the interaction of nucleotide-binding oligomerization domain containing 2 (NOD2) and the receptor-interacting serine-threonine kinase 2 (RIPK2).; format: functional; conditions: Homo sapiens
# [14] = target: T3, Ubiquitin-conjugating enzyme E2 N; format: functional; remark: listed apart in the source
# [15] = target: T5, Apoptotic protease-activating factor 1 (Homo sapiens, UniProt O14727); format: functional
# T5 sequence (O14727 whole entry): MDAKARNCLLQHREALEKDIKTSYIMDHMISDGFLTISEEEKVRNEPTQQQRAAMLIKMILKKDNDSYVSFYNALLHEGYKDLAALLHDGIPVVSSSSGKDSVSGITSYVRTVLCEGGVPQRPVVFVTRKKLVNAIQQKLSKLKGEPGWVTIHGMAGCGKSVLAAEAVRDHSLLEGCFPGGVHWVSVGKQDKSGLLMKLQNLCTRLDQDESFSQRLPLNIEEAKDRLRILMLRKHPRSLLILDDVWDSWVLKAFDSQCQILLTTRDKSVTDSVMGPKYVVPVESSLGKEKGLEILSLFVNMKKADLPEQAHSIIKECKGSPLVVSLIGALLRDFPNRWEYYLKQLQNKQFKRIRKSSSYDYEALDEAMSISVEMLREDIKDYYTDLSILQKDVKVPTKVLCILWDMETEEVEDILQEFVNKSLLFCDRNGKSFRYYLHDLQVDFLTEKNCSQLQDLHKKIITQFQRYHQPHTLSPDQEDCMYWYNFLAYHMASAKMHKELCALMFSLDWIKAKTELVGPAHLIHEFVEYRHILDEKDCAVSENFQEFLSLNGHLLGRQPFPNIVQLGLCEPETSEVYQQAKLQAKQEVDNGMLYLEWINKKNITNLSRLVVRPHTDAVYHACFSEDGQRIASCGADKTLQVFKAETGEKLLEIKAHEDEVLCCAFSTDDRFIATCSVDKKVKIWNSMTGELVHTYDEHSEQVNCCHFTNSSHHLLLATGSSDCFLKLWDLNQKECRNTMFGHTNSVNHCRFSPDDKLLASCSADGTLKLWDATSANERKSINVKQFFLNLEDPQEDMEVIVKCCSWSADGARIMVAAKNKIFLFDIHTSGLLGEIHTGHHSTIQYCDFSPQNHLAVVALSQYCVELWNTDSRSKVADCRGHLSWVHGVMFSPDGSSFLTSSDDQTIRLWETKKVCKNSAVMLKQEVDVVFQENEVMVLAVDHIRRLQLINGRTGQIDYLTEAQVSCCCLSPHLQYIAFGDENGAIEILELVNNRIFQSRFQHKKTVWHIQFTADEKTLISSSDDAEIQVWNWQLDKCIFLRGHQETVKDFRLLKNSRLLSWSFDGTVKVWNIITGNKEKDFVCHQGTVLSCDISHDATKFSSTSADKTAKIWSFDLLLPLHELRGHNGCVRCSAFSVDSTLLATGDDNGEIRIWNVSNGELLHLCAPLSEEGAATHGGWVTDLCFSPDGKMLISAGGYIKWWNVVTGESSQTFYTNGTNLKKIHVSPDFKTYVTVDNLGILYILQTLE
# [16] = test system: P388/ADR; test: cells; format: functional; conditions: Mus musculus
# [17] = test system: P388; test: cells; format: functional; conditions: Mus musculus
# [18] = test system: SN12K1; test: cells; format: functional; conditions: Homo sapiens
# [19] = target: T6, Replicative DNA helicase DnaB (Mycobacterium tuberculosis, UniProt P9WMR3); test: DnaB intein splicing inhibitors, dose response, biochemical, cell-free fluorescence (AID 449749); format: functional
# T6 sequence (P9WMR3 whole entry): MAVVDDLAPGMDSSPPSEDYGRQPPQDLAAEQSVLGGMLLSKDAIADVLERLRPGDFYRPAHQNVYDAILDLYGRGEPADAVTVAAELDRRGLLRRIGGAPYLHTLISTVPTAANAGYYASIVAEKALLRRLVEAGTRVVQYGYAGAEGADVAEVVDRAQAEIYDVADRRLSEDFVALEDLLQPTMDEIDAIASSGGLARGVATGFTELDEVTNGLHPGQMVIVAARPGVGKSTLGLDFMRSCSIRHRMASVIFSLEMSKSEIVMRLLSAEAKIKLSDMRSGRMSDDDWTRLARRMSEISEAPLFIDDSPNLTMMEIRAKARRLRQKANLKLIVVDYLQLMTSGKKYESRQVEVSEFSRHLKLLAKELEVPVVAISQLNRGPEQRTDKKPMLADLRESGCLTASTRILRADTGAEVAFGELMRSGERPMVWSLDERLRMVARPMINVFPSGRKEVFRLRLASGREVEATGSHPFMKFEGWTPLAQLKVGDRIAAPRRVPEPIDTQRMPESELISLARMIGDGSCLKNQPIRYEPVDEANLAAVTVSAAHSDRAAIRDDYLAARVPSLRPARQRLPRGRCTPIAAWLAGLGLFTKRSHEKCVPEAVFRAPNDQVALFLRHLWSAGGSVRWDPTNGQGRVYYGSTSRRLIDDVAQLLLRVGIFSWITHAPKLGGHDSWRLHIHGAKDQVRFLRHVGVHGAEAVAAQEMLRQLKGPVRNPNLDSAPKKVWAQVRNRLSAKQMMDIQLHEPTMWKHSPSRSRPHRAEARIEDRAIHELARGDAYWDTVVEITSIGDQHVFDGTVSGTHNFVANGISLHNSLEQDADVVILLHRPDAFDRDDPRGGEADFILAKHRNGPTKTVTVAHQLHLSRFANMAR
# [20] = target: T7, Protein RecA (Mycobacterium tuberculosis, UniProt P9WHJ3); test: Fluorescence Cell-Free Homogeneous Dose Retest to Identify Inhibitors of RecA-Intein Splicing Activity. [Related pubchem assays (depositor defined):AID2097, AID2223, AID489010, AID492950]; format: functional
# T7 sequence (P9WHJ3 whole entry): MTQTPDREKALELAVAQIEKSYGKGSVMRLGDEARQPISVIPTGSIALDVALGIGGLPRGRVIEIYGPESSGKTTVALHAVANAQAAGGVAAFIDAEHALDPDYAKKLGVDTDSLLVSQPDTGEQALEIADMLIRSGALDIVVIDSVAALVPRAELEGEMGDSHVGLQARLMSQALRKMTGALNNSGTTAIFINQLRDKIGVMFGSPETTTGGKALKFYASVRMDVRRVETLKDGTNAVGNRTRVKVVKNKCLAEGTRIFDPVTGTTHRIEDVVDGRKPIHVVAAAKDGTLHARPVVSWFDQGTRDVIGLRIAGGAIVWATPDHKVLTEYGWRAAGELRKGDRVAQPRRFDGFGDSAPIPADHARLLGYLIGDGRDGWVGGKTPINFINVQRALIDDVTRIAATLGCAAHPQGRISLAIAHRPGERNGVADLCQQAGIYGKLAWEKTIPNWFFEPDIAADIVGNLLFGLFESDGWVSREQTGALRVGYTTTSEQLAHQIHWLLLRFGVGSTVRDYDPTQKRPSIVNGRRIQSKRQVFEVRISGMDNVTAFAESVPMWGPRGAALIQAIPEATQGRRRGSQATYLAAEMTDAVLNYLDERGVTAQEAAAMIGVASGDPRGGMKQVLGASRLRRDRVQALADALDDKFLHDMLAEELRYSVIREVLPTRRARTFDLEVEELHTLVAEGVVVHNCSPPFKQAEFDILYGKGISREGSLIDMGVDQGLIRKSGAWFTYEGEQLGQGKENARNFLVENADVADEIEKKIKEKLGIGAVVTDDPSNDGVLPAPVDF
structure (smiles),measurement,setting,value
CCn1cc(C(=O)O)c(=O)c2cc(F)c(N3CCN(C(=S)NC(=O)c4ccccc4Cl)CC3)cc21,IC50,[1],5.84 µM (active)
CC1OC(NCCc2ccccc2)C(O)C(O)C1O (centres undefined),EC50,[2],> 29.9 µM (inactive)
same,IC50,[3],> 29.9 µM (inactive)
Cc1csc(NC(=S)NC(=O)c2ccccc2)n1,IC50,[4],> 122 µM (inactive)
C/C(=C\c1ccco1)C1C(C#N)=C(N)Oc2[nH]nc(-c3ccc(C)cc3)c21 (centres undefined),IC50,[5],132 µM (active)
same,EC50,[6],> 89.2 µM (inactive)
CN(CC(=O)Nc1ccccc1Cl)C(=O)c1cccc(S(=O)(=O)N2CCN(c3ccc(F)cc3)CC2)c1,IC50,[7],8.34 µM (active)
same,AC50,[8],> 70 µM (inactive)
same,AC50,[9],3.53 µM (active)
same,AC50,[10],3.62 µM (active)
Cc1nnc(C)c2c(C)n(-c3ccc4ncccc4c3)c(C)c12,IC50,[1],45.2 µM (inactive)
CN(C)CCC(=O)C(Cc1ccccc1)c1ccccc1 (centres undefined),IC50,[11],> 20 µM (inactive)
same,IC50,[12],> 20 µM (inactive)
same,IC50,[13],4.6 µM (active)
same,IC50,[14],13.3 µM (active)
CN(Cc1ccc(Cl)c(Cl)c1)C(=O)c1cccc(S(=O)(=O)N2CCN(Cc3ccccc3)CC2)c1,IC50,[11],12.5 µM (active)
same,IC50,[12],> 20 µM (inactive)
same,IC50,[15],42.7 µM (active)
same,AC50,[8],> 70 µM (inactive)
same,AC50,[9],7.2 µM (active)
same,IC50,[14],18.4 µM (active)
same,AC50,[10],3.47 µM (active)
Nc1ccn(C2OC(COP(=O)(O)Oc3ccccc3)C(O)C2O)c(=O)n1 (centres undefined),GI50,[16],0.675 µM (active)
same,GI50,[17],0.264 µM (active)
same,GI50,[18],5.56 µM (inactive)
CN1C(=O)c2ccccc2NC(=O)c2cnn(C)c21,GI50,[16],> 100 µM (inactive)
same,GI50,[17],> 100 µM (inactive)
same,GI50,[18],> 100 µM (inactive)
CC(=O)Nc1cc(-c2cccnc2)cn2c(-c3cccc(C(F)(F)F)c3)cnc12,EC50,[6],84.1 µM (inactive)
COc1ccc2nc3ccccc3c(NCCN(C)CCCl)c2c1,GI50,[16],0.424 µM (active)
same,GI50,[17],0.256 µM (active)
same,GI50,[18],0.684 µM (active)
CC(=O)c1c(C)[nH]c(C(=O)OCC(=O)c2ccc(Br)cc2)c1C,IC50,[7],3.35 µM (active)
CC(=O)N(C1=C(N2CCOCC2)C(=O)c2ccccc2C1=O)c1ccc(C(=O)O)cc1,IC50,[15],26.2 µM (active)
same,AC50,[19],16.7 µM (active)
same,EC50,[20],1.01 µM (active)
COC1=CC(=O)c2c(c(O)c3oc4cc(OC)cc(C)c4c(=O)c3c2O)C1=O [BIKAVERIN],GI50,[16],1.04 µM (active)
same,GI50,[17],0.695 µM (active)
same,GI50,[18],0.422 µM (active)
